Patent US20120165304A1, “6,7,8,9-Tetrahydro-5H-1,4,7,10a-tetraaza-cyclohept[f]indene derivatives, pharmaceutical compositions containing these compounds, their use and processes for preparing them” (BOEHRINGER INGELHEIM INTERNATIONAL GMBH, priority 2008, published 2012)

Molecular target: human 5-HT2C receptor (Homo sapiens, UniProt P28335, I156V/I160V/N158S)
Test: cell-based

human 5-HT2C receptor, sequence (P28335 33-458 I156V/N158S/I160V limits assumed): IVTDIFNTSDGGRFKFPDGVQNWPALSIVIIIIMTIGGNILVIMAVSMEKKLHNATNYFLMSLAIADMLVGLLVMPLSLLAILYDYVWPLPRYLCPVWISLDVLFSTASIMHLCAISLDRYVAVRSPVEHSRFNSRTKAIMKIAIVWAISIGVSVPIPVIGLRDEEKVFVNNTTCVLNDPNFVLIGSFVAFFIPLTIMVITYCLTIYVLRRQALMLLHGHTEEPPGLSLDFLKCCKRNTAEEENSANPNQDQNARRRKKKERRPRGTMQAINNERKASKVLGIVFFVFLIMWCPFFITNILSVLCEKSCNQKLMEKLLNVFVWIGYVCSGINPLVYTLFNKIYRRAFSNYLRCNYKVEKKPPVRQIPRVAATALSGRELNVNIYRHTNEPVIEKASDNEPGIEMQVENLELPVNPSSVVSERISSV

O=C(NCc1ccccc1)C1CCCN(c2c3c(nc4ccnn24)CCNCC3)C1 (stereo not drawn) [Example 1.22]
EC50: 1410 nM

CN(Cc1ccccn1)C(=O)C1CN(c2c3c(nc4ccnn24)CCNCC3)C1 [Example 31.29]
EC50: 87 nM

C[C@@H]1C[C@H](C)CN(C(=O)C2CN(c3c4c(nc5ccnn35)CCN(C)CC4)C2)C1 [Example 36.15]
EC50: 154 nM

CN(Cc1ccc(Cl)c(Cl)c1)C(=O)C1CCCN(c2c3c(nc4ccnn24)CCNCC3)C1 (stereo not drawn) [Example 1.57]
EC50: 2960 nM

O=C(C1CN(c2c3c(nc4ccnn24)CCNCC3)C1)N1CC(F)(F)C(F)(F)C1 [Example 31.200]
EC50: 28 nM

O=C(C1CN(c2c3c(nc4ccnn24)CCNCC3)C1)N1CC2CC2(c2cccs2)C1 (stereo not drawn) [Example 31.231]
EC50: 27 nM

Fc1ccc(OC2CN(c3c4c(nc5ccnn35)CCNCC4)C2)cc1 [Example 1.6]
EC50: 23 nM

O=C(C1CN(c2c3c(nc4ccnn24)CCNCC3)C1)N1CCc2cccc(Br)c2C1 [Example 31.207]
EC50: 43 nM

CCN1CCN(C(=O)C2CN(c3c4c(nc5ccnn35)CCN(C)CC4)C2)CC1 [Example 36.1, (4-Ethyl-piperazin-1-yl)-[1-(7-methyl-6,7,8,9-tetrahydro-5H-1,4,7,10a-tetraaza-cyclohepta[f]inden-10-yl)-azetidin-3-yl]-methanone]
EC50: 69 nM

CCCCn1c(C2CN(c3c4c(nc5ccnn35)CCNCC4)C2)nc2ccccc21 [Example 34.26]
EC50: 1150 nM

CC(C)CNC(=O)C1CN(c2c3c(nc4ccnn24)CCNCC3)C1 [Example 37.78]
EC50: 82 nM

CC(=O)NC1CCN(C(=O)C2CN(c3c4c(nc5ccnn35)CCNCC4)C2)C1 (stereo not drawn) [Example 37.27]
EC50: 14 nM

c1ccc2c(c1)ncn2C1CCN(c2c3c(nc4ccnn24)CCNCC3)CC1 [Example 1.42]
EC50: 9600 nM

COCCN(C)C(=O)C1CN(c2c3c(nc4ccnn24)CCNCC3)C1 [Example 31.3]
EC50: 885 nM

CNC1CCN(C(=O)C2CN(c3c4c(nc5ccnn35)CCNCC4)C2)C1 (stereo not drawn) [Example 37.26]
EC50: 2 nM

O=C(C1CN(c2c3c(nc4ccnn24)CCNCC3)C1)N1CCC2(CCC2)C1 [Example 31.56]
EC50: 43 nM

COC[C@@H]1CCCN1c1c2c(nc3ccnn13)CCNCC2 [Example 1.11]
EC50: 504 nM

O=C(C1CN(c2c3c(nc4ccnn24)CCNCC3)C1)N1CCC(OCc2ccccc2)CC1 [Example 31.199]
EC50: 48 nM

CC1CC(C)CN(C(=O)C2CN(c3c4c(nc5ccnn35)CCNCC4)C2)C1 (stereo not drawn) [Example 31.22]
EC50: 85 nM

COC1CN(c2c3c(nc4ccnn24)CCNCC3)C1 [Example 16.1]
EC50: 82 nM

FC(F)(F)c1ccc(OC2CN(c3c4c(nc5ccnn35)CCNCC4)C2)nc1 [Example 20.8]
EC50: 939 nM

FC(F)(F)c1cccc(OC2CN(c3c4c(nc5ccnn35)CCNCC4)C2)c1 [Example 1.7]
EC50: 42 nM

Cc1coc(C2CN(c3c4c(nc5ccnn35)CCNCC4)C2)n1 [Example 13, 10-[3-(4-Methyl-oxazol-2-yl)-azetidin-1-yl]-6,7,8,9-tetrahydro-5H-1,4,7,10a-tetraaza-cyclohepta[f]indene]
EC50: 628 nM

O=C(C1CN(c2c3c(nc4ccnn24)CCNCC3)C1)N1CCCC1c1ccccc1 (stereo not drawn) [Example 31.45]
EC50: 575 nM

CN1CCC2(CCN(c3c4c(nc5ccnn35)CCNCC4)CC2)C1=O [Example 1.66]
EC50: 1660 nM

O=C(C1CN(c2c3c(nc4ccnn24)CCNCC3)C1)N1CCc2cc(Cl)ccc21 [Example 31.147]
EC50: 78 nM

CC(NC(=O)C1CN(c2c3c(nc4ccnn24)CCNCC3)C1)C(C)(C)C (stereo not drawn) [Example 37.111]
EC50: 139 nM

COc1ccccc1N(C)C(=O)C1CN(c2c3c(nc4ccnn24)CCNCC3)C1 [Example 31.38]
EC50: 790 nM

CN(Cc1ccc(C(C)(C)C)cc1)C(=O)C1CN(c2c3c(nc4ccnn24)CCNCC3)C1 [Example 31.162]
EC50: 187 nM

CN1CCc2nc3ccnn3c(N3CC(C(=O)N4CC(N(C)C)C4)C3)c2CC1 [Example 36.48]
EC50: 269 nM

CN(C)CCCN(C)C(=O)C1CN(c2c3c(nc4ccnn24)CCNCC3)C1 [Example 37.41]
EC50: 8 nM

O=C(NCC1CCCC1)C1CN(c2c3c(nc4ccnn24)CCNCC3)C1 [Example 37.103]
EC50: 68 nM

O=C(C1CN(c2c3c(nc4ccnn24)CCNCC3)C1)N1CCC(Cc2ccccc2)CC1 [Example 31.126]
EC50: 47 nM

O=C(C1CN(c2c3c(nc4ccnn24)CCNCC3)C1)N1CCC2(CC2)C1 [Example 31.14]
EC50: 87 nM

O=C(C1CN(c2c3c(nc4ccnn24)CCNCC3)C1)N1CCC(c2ccccc2F)C1 (stereo not drawn) [Example 31.116]
EC50: 60 nM

O=C(C1CN(c2c3c(nc4ccnn24)CCNCC3)C1)N1CC[C@H](F)C1 [Example 31.202]
EC50: 162 nM

CC1CCN(C(=O)C2CN(c3c4c(nc5ccnn35)CCNCC4)C2)CC1 [Example 31.228]
EC50: 42 nM

CN(C)CCCN(C)C(=O)C1CN(c2c3c(nc4ccnn24)CCN(C)CC3)C1 [Example 36.55]
EC50: 87 nM

CN(C)CCN(C)C(=O)C1CN(c2c3c(nc4ccnn24)CCN(C)CC3)C1 [Example 36.2]
EC50: 563 nM

CN(C)C(=O)[C@@H]1CCN(c2c3c(nc4ccnn24)CCNCC3)C1 [Example 1.62]
EC50: 2070 nM

c1cc2nc3c(c(N4CCCOCC4)n2n1)CCNCC3 [Example 1, 10-[1,4]Oxazepan-4-yl-6,7,8,9-tetrahydro-5H-1,4,7,10a-tetraaza-cyclohepta[f]indene]
EC50: 908 nM

c1ccc(OC2CN(c3c4c(nc5ccnn35)CCNCC4)C2)cc1 [Example 1.3]
EC50: 18 nM

Cc1ccc2c(c1)N(C(=O)C1CN(c3c4c(nc5ccnn35)CCNCC4)C1)CC2 [Example 31.176]
EC50: 95 nM

Fc1ccc(Cl)c(OCC2CN(c3c4c(nc5ccnn35)CCNCC4)C2)c1 [Example 15.15]
EC50: 2 nM

CN(C)C(=O)[C@H]1CCN(c2c3c(nc4ccnn24)CCNCC3)C1 [Example 1.63]
EC50: 2680 nM

CN(Cc1ccc(Cl)cc1)C(=O)C1CN(c2c3c(nc4ccnn24)CCNCC3)C1 [Example 31.40]
EC50: 40 nM

CC1Cc2ccccc2N1C(=O)C1CN(c2c3c(nc4ccnn24)CCNCC3)C1 (stereo not drawn) [Example 31.234]
EC50: 380 nM

O=C(C1CN(c2c3c(nc4ccnn24)CCNCC3)C1)N1CC[C@H](Oc2ccccc2)C1 [Example 31.212]
EC50: 34 nM

FC(F)(F)c1cnc(OC2CN(c3c4c(nc5ccnn35)CCNCC4)C2)c(Cl)c1 [Example 20.7]
EC50: 424 nM

c1cc(OC2CN(c3c4c(nc5ccnn35)CCNCC4)C2)c2ccncc2c1 [Example 35.16]
EC50: 92 nM

Fc1ccccc1OCC1CN(c2c3c(nc4ccnn24)CCNCC3)C1 [Example 15.2]
EC50: 3 nM

CN(CC1CC1)C(=O)C1CN(c2c3c(nc4ccnn24)CCNCC3)C1 [Example 31.97]
EC50: 156 nM

CC(C)C(C)NC(=O)C1CN(c2c3c(nc4ccnn24)CCNCC3)C1 (stereo not drawn) [Example 37.77]
EC50: 95 nM

COc1ccc2ccc(OC3CN(c4c5c(nc6ccnn46)CCNCC5)C3)cc2c1 [Example 35.11]
EC50: 926 nM

c1ccc(OCC2CN(c3c4c(nc5ccnn35)CCNCC4)C2)cc1 [Example 15.17]
EC50: 31 nM

CC1CNCCc2c1nc1ccnn1c2N1CCC1 (stereo not drawn) [Example 3.1]
EC50: 3 nM

Cc1cc(OC2CN(c3c4c(nc5ccnn35)CCNCC4)C2)cc(C)n1 [Example 35.23]
EC50: 105 nM

CN1CCc2nc3ccnn3c(N3CC(C(=O)N4CCC5(CCC5)C4)C3)c2CC1 [Example 36.34]
EC50: 885 nM

COc1cccc(OC2CN(c3c4c(nc5ccnn35)CCNCC4)C2)c1 [Example 35.47]
EC50: 66 nM

CC(C)(C)CCNC(=O)C1CN(c2c3c(nc4ccnn24)CCNCC3)C1 [Example 37.83]
EC50: 51 nM

CCN1CCN(C(=O)C2CN(c3c4c(nc5ccnn35)CCNCC4)C2)CC1=O [Example 37.65]
EC50: 5 nM

FC(F)(F)c1ccnc(OC2CN(c3c4c(nc5ccnn35)CCNCC4)C2)n1 [Example 35.48]
EC50: 526 nM

Cc1nc(CN(C)C(=O)C2CN(c3c4c(nc5ccnn35)CCNCC4)C2)c(C)o1 [Example 31.58]
EC50: 53 nM

O=C(N[C@H]1C[C@@H]1c1ccccc1)C1CN(c2c3c(nc4ccnn24)CCNCC3)C1 [Example 31.28]
EC50: 314 nM

CC(=O)N(C)C1CCN(C(=O)C2CN(c3c4c(nc5ccnn35)CCN(C)CC4)C2)CC1 [Example 36.31]
EC50: 187 nM

CC(C)CC(C)NC(=O)C1CN(c2c3c(nc4ccnn24)CCNCC3)C1 (stereo not drawn) [Example 37.99]
EC50: 92 nM

O=C(C1CN(c2c3c(nc4ccnn24)CCNCC3)C1)N1CCCC2(CCc3ccccc32)C1 (stereo not drawn) [Example 31.173]
EC50: 440 nM

COc1ccc(OCC2CN(c3c4c(nc5ccnn35)CCNCC4)C2)cc1 [Example 15.3]
EC50: 10 nM

Cc1cnn2c(N3CC(C(=O)N4CCC5(CC4)OCc4ccccc45)C3)c3c(nc12)CCNCC3 [Example 31.242]
EC50: 86 nM

CCc1cnn2c(N3CC(Oc4ccc(OC)cc4)C3)c3c(nc12)CCNCC3 [Example 25.1]
EC50: 77 nM

COc1ccc(OC2CN(c3c4c(nc5c(C)cnn35)CCNCC4)C2)cc1 [Example 27.2]
EC50: 55 nM

O=C(C1CN(c2c3c(nc4ccnn24)CCNCC3)C1)N1CC(Cc2ccccc2)C1 [Example 31.119]
EC50: 82 nM

CC1CN(C(=O)C2CN(c3c4c(nc5c(Br)cnn35)CCNCC4)C2)CC(C)O1 (stereo not drawn) [Example 31.140]
EC50: 65 nM

O=C(C1CN(c2c3c(nc4ccnn24)CCNCC3)C1)N1CCc2c(F)cccc2C1 [Example 31.204]
EC50: 33 nM

Cc1cnn2c(N3CC(C(=O)N4CCc5ccccc54)C3)c3c(nc12)CCNCC3 [Example 31.236]
EC50: 31 nM

c1cc2nc3c(c(N4CCCCC4)n2n1)CCNCC3 [Example 7.2]
EC50: 4560 nM

c1ccc(COC2CN(c3c4c(nc5ccnn35)CCNCC4)C2)nc1 [Example 20.15]
EC50: 180 nM

CN(C)CCCNC(=O)C1CN(c2c3c(nc4ccnn24)CCN(C)CC3)C1 [Example 36.53]
EC50: 87 nM

O=C(C1CN(c2c3c(nc4ccnn24)CCNCC3)C1)N1CCC(Oc2ccccc2)CC1 [Example 31.154]
EC50: 40 nM

Brc1cnn2c(N3CCC(c4ccccc4)C3)c3c(nc12)CCNCC3 (stereo not drawn) [Example 2.2]
EC50: 56 nM

c1cncc(Cn2c(C3CN(c4c5c(nc6ccnn46)CCNCC5)C3)nc3ccccc32)c1 [Example 34.27]
EC50: 46 nM
